The values that follow come from patent US12310970B2, “Compounds and methods for treating or preventing anterior segment ocular disorders and/or retinal degenerations” (YALE UNIVERSITY, priority 2018, dated 2025).

In brackets after ≈: the same amount, converted by molar mass.

Data set [1] is described as follows: Solubility / dissolution in aqueous media. It counts as physicochemical.
Description: 2.00 g HPBCD was dissolved in 4 mL deionized and filtered water by slow inversion/rotation. […] The volume was adjusted to 5.00 mL to provide 5.00 mL of a 40% clear solution by weight. To the 5.00 mL solution of 40% HPBCD was added 175 mg ciclopirox powder, and the vial was sealed and placed under slow rotary inversion to dissolve the solid. […] This 35 mg/mL solution was easily filtered through a 0.22 um syringe filter (MILLEX GV, PVDF membrane).
To the 5.00 mL solution of 40% HPBCD was added 175 mg (0.844 mmol, MW 207.3) ciclopirox powder and the vial sealed and placed under slow rotary inversion to dissolve the solid. […] This 35 mg/mL solution was easily filtered through a 0.22 um syringe filter (MILLEX GV, PVDF membrane).
For data set [2] the following is noted: in water; cited from earlier work.

In general, solubility refers to the dissolved amount per volume that the medium holds. Read a low solubility as little dissolved substance. In turn, `Cc1cc(C2CCCCC2)n(O)c(=O)c1` [ciclopirox, 6-cyclohexyl-1-hydroxy-4-methyl-2(1H)-pyridone] came in with a solubility in data set [1] (aqueous buffer, pH 7.4 phosphate buffer (no saline)) of 1000 µg/mL (≈ 4.82 mM). Also, in data set [1] (in 40% HPBCD, after 1 hour mixing), the concentration completely dissolved turned out to be 35000 µg/mL.

Consider `OC[C@H]1O[C@@H]2O[C@H]3[C@H](O)[C@@H](O)[C@@H](O[C@H]4[C@H](O)[C@@H](O)[C@@H](O[C@H]5[C@H](O)[C@@H](O)[C@@H](O[C@H]6[C@H](O)[C@@H](O)[C@@H](O[C@H]7[C@H](O)[C@@H](O)[C@@H](O[C@H]8[C@H](O)[C@@H](O)[C@@H](O[C@H]9[C@H](O)[C@@H](O)[C@@H](O[C@H]1[C@H](O)[C@H]2O)O[C@@H]9CO)O[C@@H]8CO)O[C@@H]7CO)O[C@@H]6CO)O[C@@H]5CO)O[C@@H]4CO)O[C@@H]3CO` [gamma cyclodextrin], for which the solubility limit entry in data set [2] is given as “about 23.2 mg/mL”.
